Data from ChEMBL document CHEMBL1154077, “Carbonic anhydrase inhibitors. Inhibition studies of a coral secretory isoform by sulfonamides” (Bioorg Med Chem, 2009).

Each compound was assayed against T1, Alpha carbonic anhydrase (Stylophora pistillata, UniProt B5SU02).
T1 sequence (B5SU02 whole entry): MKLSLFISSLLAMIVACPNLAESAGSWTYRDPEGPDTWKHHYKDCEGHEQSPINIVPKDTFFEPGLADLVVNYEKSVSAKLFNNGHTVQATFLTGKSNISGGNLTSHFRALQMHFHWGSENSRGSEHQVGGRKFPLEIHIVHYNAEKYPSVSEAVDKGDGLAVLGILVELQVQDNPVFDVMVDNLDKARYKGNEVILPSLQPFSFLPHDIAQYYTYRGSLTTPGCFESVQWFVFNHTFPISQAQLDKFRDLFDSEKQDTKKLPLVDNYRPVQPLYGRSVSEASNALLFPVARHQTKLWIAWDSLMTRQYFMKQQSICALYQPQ
Description: Inhibition of cloned Stylophora pistillata alpha-CA expressed in human HEK293 cells by stopped-flow CO2 assay
`NNc1ccccc1S(N)(=O)=O` gave a Ki of 2510 nM.
With `Nc1nnc(S(N)(=O)=O)s1` the Ki was 105 nM.
Compound `Nc1ccc(S(=O)(=O)NCc2ccc(S(N)(=O)=O)cc2)cc1` has a Ki of 29.8 nM.
`Nc1cc(Cl)c(S(N)(=O)=O)cc1S(N)(=O)=O` gave a Ki of 295 nM.
For `Nc1ccc(S(N)(=O)=O)cc1I`, the Ki was 88.3 nM.
In the case of `Nc1ccc(S(=O)(=O)Nc2nnc(S(N)(=O)=O)s2)cc1`, the Ki is reported as 27.6 nM.
In the case of `Nc1nccc(Nc2ccc(S(N)(=O)=O)cc2)n1`, the Ki is reported as 25.4 nM.
Work on `Nc1ccc(S(N)(=O)=O)cc1Br` yielded a Ki of 104 nM.
Work on `Cn1nc(S(N)(=O)=O)sc1=N` yielded a Ki of 91.9 nM.
`NS(=O)(=O)c1ccc(CCO)cc1` was tested, and the Ki was 770 nM.
`Nc1ccc(S(N)(=O)=O)cc1F` gave a Ki of 75.1 nM.
Compound `NS(=O)(=O)c1ccc(CO)cc1` has a Ki of 768 nM.
With `NCCc1ccc(S(N)(=O)=O)cc1` the Ki was 94.3 nM.
In the case of `Nc1ccc(S(N)(=O)=O)cc1Cl`, the Ki is reported as 87.5 nM.
In the case of `Nc1ccc(S(=O)(=O)NCCc2ccc(S(N)(=O)=O)cc2)cc1`, the Ki is reported as 19.7 nM.
For `NS(=O)(=O)c1ccc(S(=O)(=O)Nc2cccc3c(Cl)c[nH]c23)cc1`, the Ki was 163 nM.
`Nc1cc(C(F)(F)F)c(S(N)(=O)=O)cc1S(N)(=O)=O` [2,4-DISULFAMYLTRIFLUOROMETHYLANILINE] gave a Ki of 367 nM.
For `NS(=O)(=O)c1nnc(NS(=O)(=O)c2ccccc2)s1` [BENZOLAMIDE], the Ki was 20.4 nM.
`CCN[C@H]1CN(CCCOC)S(=O)(=O)c2sc(S(N)(=O)=O)cc21` [BRINZOLAMIDE] was tested, and the Ki was 48.2 nM.
For `NS(=O)(=O)c1ccc(C(=O)O)cc1` [CARZENIDE], the Ki was 435 nM.
Work on `Cc1ccc(-c2cc(C(F)(F)F)nn2-c2ccc(S(N)(=O)=O)cc2)cc1` [CELECOXIB] yielded a Ki of 34.2 nM.
In the case of `NCc1ccc(S(N)(=O)=O)cc1` [MAFENIDE], the Ki is reported as 82.5 nM.
For `Cc1ccc(S(N)(=O)=O)cc1` [P-TOLUENESULFONAMIDE], the Ki was 614 nM.
With `O=C1NS(=O)(=O)c2ccccc21` [SACCHARIN] the Ki was 40.3 nM.
Compound `Nc1ccc(S(N)(=O)=O)cc1` [SULFANILAMIDE] has a Ki of 364 nM.
With `CC1(C)O[C@@H]2[C@@H](CO[C@@]3(COS(N)(=O)=O)OC(C)(C)O[C@@H]23)O1` [TOPIRAMATE] the Ki was 29.1 nM.
